Marks after values point to notes of the source that are not given here.
Legend:
Assay type in all cases: in vivo
Settings in all cases: 100 = 100% disease control
Botrytis cinerea = assay: Test E: tomato botrytis, preventive spray on tomato seedlings, visual disease rating
Text: (§1) General protocol for preparing test suspensions for Tests A-E: the test compounds were first dissolved in acetone in an amount equal to 11% of the final volume and then suspended at the desired concentration (in ppm) in acetone and purified water (50/50 mix by volume) containing 250 ppm of the surfactant Trem® 014 (polyhydric alcohol esters). The resulting test suspensions were then used in Tests A-E. Spraying a 200 ppm test suspension to the point of run-off on the test plants was the equivalent of a rate of 800 g/ha.
The test suspension was sprayed to the point of run-off on tomato seedlings. The following day the seedlings were inoculated with a spore suspension of Botrytis cinerea (the causal agent of tomato botrytis) and incubated in saturated atmosphere at 20° C. for 48 h, and then moved to a growth chamber at 27° C. for 3 additional days, after which time disease ratings were visually made.
(§2) Results for Tests A-E are given in Table A. In the Table, a rating of 100 indicates 100% disease control and a rating of 0 indicates no disease control (relative to the controls). A dash (-) indicates no test results. All results are for 200 ppm except where followed by an “*”, which indicates 40 ppm or “**”, which indicates 50 ppm.

[1] = test system: Erysiphe graminis f. sp. tritici; assay: Test A: wheat powdery mildew, preventive spray on wheat seedlings, visual disease rating
Text: as §1
The test suspension was sprayed to the point of run-off on wheat seedlings. The following day the seedlings were inoculated with a spore dust of Erysiphe graminis f. sp. tritici, (the causal agent of wheat powdery mildew) and incubated in a growth chamber at 20° C. for 8 days, after which time disease ratings were visually made.
as §2

[2] = test system: Puccinia recondita f sp. tritici; assay: Test B: wheat leaf rust, preventive spray on wheat seedlings, visual disease rating
Text: as §1
(§3) The test suspension was sprayed to the point of run-off on wheat seedlings. The following day the seedlings were inoculated with a spore suspension of Puccinia recondita f sp. tritici (the causal agent of wheat leaf rust) and incubated in a saturated atmosphere at 20° C. for 24 h, and then moved to a growth chamber at 20° C. for 7 days, after which time disease ratings were visually made.
as §2

Septoria nodorum = assay: Test D: wheat glume blotch, preventive spray on wheat seedlings, visual disease rating
Text: as §1
as §3, with “Septoria nodorum” for “Puccinia recondita f sp. tritici”, “glume blotch)” for “leaf rust)”, “48” for “24”
as §2

Septoria tritici = assay: Test C: wheat leaf blotch, preventive spray on wheat seedlings, visual disease rating
Text: as §1
The test suspension was sprayed to the point of run-off on wheat seedlings. The following day the seedlings were inoculated with a spore suspension of Septoria tritici (the causal agent of wheat leaf blotch) and incubated in a saturated atmosphere at 24° C. for 48 h, and then moved to a growth chamber at 20° C. for 19 days, after which time disease ratings were visually made.
as §2

Molecule	Test E disease control rating (Botrytis cinerea; 40 ppm (*))	Test A disease control rating ([1]; 40 ppm (*))	Test B disease control rating ([2]; 40 ppm (*))	Test D disease control rating (Septoria nodorum; 40 ppm (*))	Test C disease control rating (Septoria tritici; 40 ppm (*))	further results
COC(=O)NCc1cc(-c2ccn(-c3ccc(Cl)cc3[N+](=O)[O-])n2)ccc1C [Cmpd 49]	8* %	26* %	100* %	100* %	95* %	
CCOc1ccc(-c2ccn(-c3ccc(C)c(CNC(=O)OC)c3)n2)c(Cl)c1 [Cmpd 76]	0* %	100* %	100* %	100* %	99* %	
COC(=O)NCc1cc(-n2ccc(-c3ccc(Cl)nc3OC)n2)ccc1C [Cmpd 45]	39* %	98* %	100* %	100* %	95* %	
COC(=O)NCc1cc(-n2ccc(-c3ccc(C)cc3C)n2)ccc1C [Compound 38, methyl N-[[5-[3-(2,4-dimethylphenyl)-1H-pyrazol-1-yl]-2-methylphenyl]-methyl]carbamate]						pest or weed control at 40 ppm (Botrytis cinerea; Botrytis cinerea, 120 h, 40 ppm (*)): 98%; pest or weed control at 40 ppm ([1]; Blumeria graminis, 192 h, 40 ppm (*)): 100%; pest or weed control at 40 ppm ([2]; 192 h, 40 ppm (*)): 100%; pest or weed control at 40 ppm (Septoria nodorum; Parastagonospora nodorum, 216 h, 40 ppm (*)): 100%; pest or weed control at 40 ppm (Septoria tritici; Zymoseptoria tritici, 504 h, 40 ppm (*)): 100%
COC(=O)NCc1cc(-c2ccn(-c3ccc(Br)cc3Cl)n2)ccc1C [Cmpd 61]	91* %	100* %	100* %	100* %	94* %	
methyl N-[[5-[4-(2,4-dimethylphenyl)-2H-1,2,3-triazol-2-yl]-2-methylphenyl]-methyl]carbamate [Compound 91]	33* %	100* %	100* %	100* %	92* %	
COC(=O)NCc1cc(-n2ccc(-c3ccc(Cl)cc3OCC#N)n2)ccc1C [Cmpd 72]	0* %	93* %	100* %	100* %	90* %	
COC(=O)NCc1cc(-n2ccc(-c3ccc(C)cc3OC)n2)ccc1C [Cmpd 12]						Test E disease control rating (Botrytis cinerea; 200 ppm): 95%; Test A disease control rating ([1]; 200 ppm): 100%; Test B disease control rating ([2]; 200 ppm): 100%; Test D disease control rating (Septoria nodorum; 200 ppm): 100%; Test C disease control rating (Septoria tritici; 200 ppm): 97%
COC(=O)NCc1cc(-c2ccn(-c3ccc(F)cc3Cl)n2)ccc1C [Cmpd 60]	99* %	100* %	100* %	100* %	91* %	
COC(=O)NCc1cc(-n2ncc(-c3ccc(OC)cc3C)n2)ccc1C [Compound 8, methyl N-[[5-[4-(4-methoxy-2-methylphenyl)-2H-1,2,3-triazol-2-yl]-2-methylphenyl]methyl]carbamate]						pest or weed control at 200 ppm (Botrytis cinerea; Botrytis cinerea, 120 h, 200 ppm): 90%; pest or weed control at 200 ppm ([1]; Blumeria graminis, 192 h, 200 ppm): 100%; pest or weed control at 200 ppm ([2]; 192 h, 200 ppm): 100%; pest or weed control at 200 ppm (Septoria nodorum; Parastagonospora nodorum, 216 h, 200 ppm): 100%; pest or weed control at 200 ppm (Septoria tritici; Zymoseptoria tritici, 504 h, 200 ppm): 100%
methyl N-[[5-[1-(2,4-dimethylphenyl)-1H-pyrazol-3-yl]-2-methylphenyl]-methyl]carbamate [Compound 66]	99* %	100* %	100* %	100* %	96* %	
COC(=O)NCc1cc(-n2ccc(-c3ccc(F)cc3OC)n2)ccc1C [Cmpd 14]						Test E disease control rating (Botrytis cinerea; 200 ppm): 97%; Test A disease control rating ([1]; 200 ppm): 100%; Test B disease control rating ([2]; 200 ppm): 100%; Test D disease control rating (Septoria nodorum; 200 ppm): 100%; Test C disease control rating (Septoria tritici; 200 ppm): 100%
COC(=O)NCc1cc(-n2ccc(-c3ccc(C#N)cc3C)n2)ccc1C [Cmpd 69]	0* %	100* %	100* %	100* %	66* %	

Source: patent publication US20150266850A1 (E.I.DU PONT DE NEMOURS AND COMPANY, priority 2012, published 2015)
